Data as given in paper PMC6985722 (Antimicrobial Agents and Chemotherapy, 2020).
“And” between values parts separate entries of the source, which are not always exact repeats. Equal entries are not always repeated. Where two headings read alike, the source gives them in different places.

Experiments:
RSV-A clinical isolates = tested on: RSV-A clinical isolates; set-up: method as in ref 16 = [16]; 16. Cockerill GS , Bedernjak A , Brookes D , Dowey R , Harland R , Johnson SM , Mathews N , Paradowski M , Peeples M , Scott C , Steadman M , Taylor G , Thom M , Thomas E , Ward SE , Watterson D , You; conditions: n = 20 isolates; cited from earlier work
[1] = RSV human challenge study: plasma pharmacokinetics; assay type: in vivo; conditions: for half-life / Tmax / concentration at 12 h / Cmax / AUC(0-t): human; for concentration at 12 h: 12 hours post-dose, read-out: Mean Cmin (SD); for Cmax: read-out: Mean Cmax (SD); for AUC(0-t): read-out: Geometric mean (CV) AUC0–12h
Method: Twice-daily collection of nasal wash samples allowed measurement of viral load via RT-qPCR and quantitative culture. […] Subjects reported the occurrence and severity of symptoms three times daily using a 10-item subject symptom diary card as previously reported ([12]) (see Supplemental Methods). Throughout the quarantine period, used tissues were collected and weighed daily, and total nasal mucus weight was recorded. PK assessments were based on venous blood samples. Safety assessments included measurement of vital signs, standard 12-lead ECG recordings, spirometry, a complete physical examination, and a respiratory-directed physical examination. AEs were monitored daily, coded according to the Medical Dictionary for Regulatory Activities Version 20.0, and graded according to the National Cancer Institute Common Terminology Criteria for Adverse Events Version 4.0 (see Supplemental Methods for further details).
The safety analysis set comprised all subjects who received challenge virus; the PK analysis set comprised all subjects who received the challenge virus and provided at least one postdose PK result.
PK parameters were derived by noncompartmental analysis using Phoenix WinNonlin version 6.4.1. Statistical analyses were performed using SAS software version 9.4 or later. […]
Outcomes. Safety outcomes included the occurrence of AEs. PK outcomes included the maximum plasma concentration, the minimum plasma concentration, the time to maximum plasma concentration, and the area under the plasma concentration-time curve with a dosing interval, calculated by the linear trapezoidal rule.

RSV-A Memphis-37b = assay: RSV human challenge study: viral load in nasal wash by RT-qPCR; assay type: in vivo; conditions: for AUC of viral load (RT-qPCR), fixed time period of 6.5 days, mean (SE) / AUC of viral load (RT-qPCR), fixed time period of 6.5 days, reduction in mean vs placebo: fixed 6.5 days
Method: Subjects were screened outside the RSV season for eligibility, including measurement of RSV-A Memphis-37b-specific neutralizing antibody titer, ≤90 days before virus challenge. Eligible subjects were admitted to the quarantine unit on day −2 or day −1 and were inoculated intranasally on day 0 with the challenge virus, RSV-A Memphis-37b (4 log10 PFU/ml, given as one 0.4-ml installation per naris), as previously described ([26]). Nasal wash sampling every 12 h for confirmation of RSV infection by qualitative integrated cycler PCR ([12], [19]) began on the morning of day 2. Treatment began 12 h (±1 h) after collection of a nasal wash sample confirming RSV infection or on the evening of day 5 if RSV infection remained unconfirmed by the morning of day 5.
The study comprised two consecutive cohorts. […] Subjects were discharged on day 12 if nasopharyngeal swab samples tested negative by RSV rapid antigen assay (QuickVue RSV test; Quidel, San Diego, CA, USA). If such tests were positive or if a subject remained symptomatic, quarantine was extended to allow further observation. All subjects were evaluated on day 28 (±3 days).
Twice-daily collection of nasal wash samples allowed measurement of viral load via RT-qPCR and quantitative culture. RT-qPCR results were reported as PFUe/ml when the standard curve included in each assay contained a known infectious amount (PFU) of RSV, as described previously ([30]). Subjects reported the occurrence and severity of symptoms three times daily using a 10-item subject symptom diary card as previously reported ([12]) (see Supplemental Methods). Throughout the quarantine period, used tissues were collected and weighed daily, and total nasal mucus weight was recorded. PK assessments were based on venous blood samples. Safety assessments included measurement of vital signs, standard 12-lead ECG recordings, spirometry, a complete physical examination, and a respiratory-directed physical examination. AEs were monitored daily, coded according to the Medical Dictionary for Regulatory Activities Version 20.0, and graded according to the National Cancer Institute Common Terminology Criteria for Adverse Events Version 4.0 (see Supplemental Methods for further details).
The primary efficacy endpoint was AUC for RSV viral load, as measured by RT-qPCR, in nasal wash samples taken twice daily from just before the first dose until discharge (day 12). Viral load data were provided as log10 PFUe/ml; AUC (log10 PFUe/ml · h) was calculated using the trapezoid rule. Secondary efficacy endpoints related to viral load were AUC of RSV viral load, as assessed by quantitative culture, and the following measures, which were each assessed using both RT-qPCR and quantitative culture: peak viral load, time to peak viral load, and time to <1 log10 (for RT-qPCR) or undetectable (for quantitative culture) viral load (considered to occur at the first confirmed undetectable assessment after which no further virus was detected). Secondary efficacy endpoints related to clinical symptoms included AUC total symptom score; peak total symptom score; time to peak total symptom score; and the total weight of nasal mucus produced. Other secondary outcomes were safety, PK, and sequence detection of viral variants (see Supplemental Methods).
The primary efficacy analysis population (the ITT-I analysis set) comprised all randomized subjects who received challenge virus and at least one dose of study drug and met the criterion for laboratory-confirmed RSV infection (presence of detectable RSV). Sensitivity analyses were based on a subset of the ITT-I population who had first detectable RSV infection prior to study drug administration (the ITT-A analysis set) and a fixed time period of 6.5 days (comprising data for all subjects for 6.5 days of evaluation after the first dose, regardless of the staggered commencement of dosing). […]

[2] = 200 mg, ITT-A, fixed time period of 6.5 days
[3] = 350 mg, ITT-A, fixed time period of 6.5 days

For `NCc1ccc2c(c1)nc(CN1C(=O)C3(CC3)c3ccc(F)cc31)n2CCCC(F)(F)F` [RV521], the IC50 (RSV-A clinical isolates) is given as 1.4 nM, the “Time to steady-state plasma levels after the first dose” value ([1]; 200 mg and 350 mg) is given as no more than 24 h and the “Subjects achieving target trough levels (3× protein-adjusted in vitro EC90)” value ([1]; 200 mg, after the first dose) is given as 50%. For the same compound, the “Subjects achieving target trough levels (3× protein-adjusted in vitro EC90)” value ([1]; 200 mg, after the second dose) was 73%, the “Subjects with trough levels in excess of the target (3× protein-adjusted in vitro EC90)” value ([1]; 350 mg, after the first dose) was “all subjects” and the “Increase of systemic exposure with dose” value ([1]; dose 1 and dose 10, 200 mg vs 350 mg) was “greater than dose-proportional”. The half-life ([1]; in vivo, 200 mg and 350 mg, read-out: Elimination half-life (converted)) was roughly 6 h, the Tmax ([1]; plasma, oral, 200 mg and 350 mg, postdose, read-out: Median time to maximum plasma concentration) was 5 to 6 h and the concentration at 12 h ([1]; plasma, oral, 200 mg, dose 1) was 22.6 ng/mL. It also gave a Cmax ([1]; plasma, oral, 200 mg, dose 1, plasma) of 55.3 ng/mL, an AUC(0-t) ([1]; plasma, oral, 200 mg, dose 1) of 255 ng·h/mL and a Tmax ([1]; plasma, oral, 200 mg, dose 1, read-out: Median Tmax) of 5.04 h. For the same compound, the Cmax ([1]; plasma, oral, 200 mg, dose 10 (twice daily), plasma) was 94.9 ng/mL, the concentration at 12 h ([1]; plasma, oral, 200 mg, dose 10) was 39.4 ng/mL and the AUC(0-t) ([1]; plasma, oral, 200 mg, dose 10) was 642 ng·h/mL. The Tmax ([1]; plasma, oral, 200 mg, dose 10, read-out: Median Tmax) was 5.06 h, the concentration at 12 h ([1]; plasma, oral, 350 mg, dose 1) was 80 ng/mL and the Cmax ([1]; plasma, oral, 350 mg, dose 1, plasma) was 169 ng/mL. For the same compound, the AUC(0-t) ([1]; plasma, oral, 350 mg, dose 1) was 953 ng·h/mL, the Tmax ([1]; plasma, oral, 350 mg, dose 1, read-out: Median Tmax) was 6 h and the Cmax ([1]; plasma, oral, 350 mg, dose 10 (twice daily), plasma) was 294 ng/mL. It also gave a concentration at 12 h ([1]; plasma, oral, 350 mg, dose 10) of 151 ng/mL, an AUC(0-t) ([1]; plasma, oral, 350 mg, dose 10) of 1900 ng·h/mL and a Tmax ([1]; plasma, oral, 350 mg, dose 10, read-out: Median Tmax) of 5.05 h. The half-life ([1]; plasma, oral, 200 mg and 350 mg, read-out: Terminal half-life) was 8.54 to 9.35 h, the “AUC of viral load (RT-qPCR), mean (SE)” value (RSV-A Memphis-37b; 200 mg, ITT-A) was 236.81 (37.63) hours x log 10 PFUe/mL and the “AUC of viral load (RT-qPCR), reduction in mean vs placebo” value (RSV-A Memphis-37b; 200 mg, ITT-A) was 59.74%. For the same compound, the “Peak viral load (RT-qPCR), mean (SE)” value (RSV-A Memphis-37b; 200 mg, ITT-A) was 3.63 (0.26) log10 PFUe/mL, the “Time to <1 log10 viral load (RT-qPCR), median (Q1, Q3)” value (shortened to “Time to <1 log10 viral load (RT-qPCR)”) (RSV-A Memphis-37b; 200 mg, ITT-A) was 3.0 (3.0, 6.0) days and the “Time to peak viral load (RT-qPCR), mean (SE)” value (shortened to “Time to peak viral load … (SE)”) (RSV-A Memphis-37b; 200 mg, ITT-A) was 0.94 (0.11) days. The “AUC of viral load (RT-qPCR), mean (SE)” value (RSV-A Memphis-37b; [2]) was 234.29 (37.07) log10 PFUe/mL x hours, the “AUC of viral load (RT-qPCR), reduction in mean vs placebo” value (RSV-A Memphis-37b; [2]) was “–276.21 log10 PFUe/mL x hours” and the “AUC of viral load (RT-qPCR), mean (SE)” value (RSV-A Memphis-37b; 200 mg, ITT-I) was 224.35 log10 PFUe/ml · h and 224.35 (37.60) log10 PFUe/ml · h. The “AUC of viral load (RT-qPCR), reduction in mean vs that of placebo” value (RSV-A Memphis-37b; 200 mg, ITT-I) was 55.25%, the “AUC of viral load (RT-qPCR, unlogged), mean (SE)” value (RSV-A Memphis-37b; 200 mg, ITT-I) was 1,087,294.53 (604,070.11) PFUe/ml · h and the “AUC of viral load (RT-qPCR, unlogged), reduction in mean vs that of placebo” value (RSV-A Memphis-37b; 200 mg, ITT-I) was 99.10%. For the same compound, the “Peak viral load (RT-qPCR), mean (SE)” value (RSV-A Memphis-37b; 200 mg, ITT-I) was 3.47 log10 PFUe/ml and 3.47 (0.30) log10 PFUe/ml, the “Time to <1 log10 viral load (RT-qPCR)” value (RSV-A Memphis-37b; 200 mg, ITT-I) was 3.0 days and 3.0 (3.0, 6.0) (n = 17) days and the “Time to peak viral load … (SE)” value (RSV-A Memphis-37b; 200 mg, ITT-I) was 0.95 days and 0.95 (0.11) days. The “Mean viral load at time of peak viral load in placebo arm (day 3; RT-qPCR), mean (SE)” value (RSV-A Memphis-37b; 200 mg, ITT-I) was 1.35 (0.36) log10 PFUe/ml, the “AUC of viral load (RT-qPCR), fixed time period of 6.5 days, mean (SE)” value (RSV-A Memphis-37b; 200 mg, ITT-I) was 221.98 (37.05) log10 PFUe/ml · h and the “AUC of viral load (RT-qPCR), fixed time period of 6.5 days, reduction in mean vs placebo” value (RSV-A Memphis-37b; 200 mg, ITT-I) was 49.08%. For the same compound, the “AUC of viral load (RT-qPCR), mean (SE)” value (RSV-A Memphis-37b; 350 mg, ITT-A) was 210.61 (29.76) hours x log 10 PFUe/mL, the “AUC of viral load (RT-qPCR), reduction in mean vs placebo” value (RSV-A Memphis-37b; 350 mg, ITT-A) was 64.19% and the “Peak viral load (RT-qPCR), mean (SE)” value (RSV-A Memphis-37b; 350 mg, ITT-A) was 3.58 (0.40) log10 PFUe/mL. For the same compound, the “Time to <1 log10 viral load (RT-qPCR)” value (RSV-A Memphis-37b; 350 mg, ITT-A) was 3.5 (3.0, 4.0) days, the “Time to peak viral load … (SE)” value (RSV-A Memphis-37b; 350 mg, ITT-A) was 1.65 (0.39) days and the “AUC of viral load (RT-qPCR), mean (SE)” value (RSV-A Memphis-37b; [3]) was 207.56 (28.74) log10 PFUe/mL x hours. The “AUC of viral load (RT-qPCR), reduction in mean vs placebo” value (RSV-A Memphis-37b; [3]) was “–302.95 log10 PFUe/mL x hours”, the “AUC of viral load (RT-qPCR), mean (SE)” value (RSV-A Memphis-37b; 350 mg, ITT-I) was 185.26 log10 PFUe/ml · h and 185.26 (31.17) log10 PFUe/ml · h and the “AUC of viral load (RT-qPCR), reduction in mean vs that of placebo” value (RSV-A Memphis-37b; 350 mg, ITT-I) was 63.05%. For the same compound, the “AUC of viral load (RT-qPCR, unlogged), mean (SE)” value (RSV-A Memphis-37b; 350 mg, ITT-I) was 1,356,521.31 (1,117,131.13) PFUe/ml · h, the “AUC of viral load (RT-qPCR, unlogged), reduction in mean vs that of placebo” value (RSV-A Memphis-37b; 350 mg, ITT-I) was 98.87% and the “Peak viral load (RT-qPCR), mean (SE)” value (RSV-A Memphis-37b; 350 mg, ITT-I) was 3.17 log10 PFUe/ml and 3.17 (0.45) log10 PFUe/ml. For the same compound, the “Time to <1 log10 viral load (RT-qPCR)” value (RSV-A Memphis-37b; 350 mg, ITT-I) was 3.5 days and 3.5 (3.0, 4.0) (n = 13) days, the “Time to peak viral load … (SE)” value (RSV-A Memphis-37b; 350 mg, ITT-I) was 1.63 days and 1.63 (0.34) days and the “Mean viral load at time of peak viral load in placebo arm (day 3; RT-qPCR), mean (SE)” value (RSV-A Memphis-37b; 350 mg, ITT-I) was 0.80 (1.07) log10 PFUe/ml. The “AUC of viral load (RT-qPCR), fixed time period of 6.5 days, mean (SE)” value (RSV-A Memphis-37b; 350 mg, ITT-I) was 182.59 (30.29) log10 PFUe/ml · h and the “AUC of viral load (RT-qPCR), fixed time period of 6.5 days, reduction in mean vs placebo” value (RSV-A Memphis-37b; 350 mg, ITT-I) was 58.12%.
